# Experimental data: patent publication US12459899B2, “Isoquinolinone derivatives, method for preparing the same, and pharmaceutical composition for preventing or treating poly(ADP-ribose) polymerase-1-related diseases, comprising the same as active ingredient” (DIGMBIO. INC., priority 2019, dated 2025)
# Structures can show the parent of a compound that is named as a salt.
# Target: PARP-1 (poly[ADP-ribose] polymerase 1) enzyme (Homo sapiens (Human), UniProt P09874)
# Assay: PARP-1 (poly[ADP-ribose] polymerase 1) enzyme inhibitory ability, Trevigen assay kit
# Assay type: biochemical
# Conditions: for inhibition at 0.001 µM: 1 nM compound, read-out: PAR P-1 Inhibitory ability at 1 nM; for IC50: PARP-1 enzyme activity
# Outline: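 After the 1 hour PARP reaction, wells were washed with PBS containing 0.1% triton X-100 and then PBS. Strep-HRP (50 μL) was bound for 1 hour, wells washed again, and 50 μL of TACS-sapphire substrate developed 15 minutes in the dark. Reactions were stopped with 50 μL of 5% phosphoric acid and absorbance read at 450 nm on a Victor3 reader.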
# Chain of PARP-1 (poly[ADP-ribose] polymerase 1) enzyme (P09874 whole entry): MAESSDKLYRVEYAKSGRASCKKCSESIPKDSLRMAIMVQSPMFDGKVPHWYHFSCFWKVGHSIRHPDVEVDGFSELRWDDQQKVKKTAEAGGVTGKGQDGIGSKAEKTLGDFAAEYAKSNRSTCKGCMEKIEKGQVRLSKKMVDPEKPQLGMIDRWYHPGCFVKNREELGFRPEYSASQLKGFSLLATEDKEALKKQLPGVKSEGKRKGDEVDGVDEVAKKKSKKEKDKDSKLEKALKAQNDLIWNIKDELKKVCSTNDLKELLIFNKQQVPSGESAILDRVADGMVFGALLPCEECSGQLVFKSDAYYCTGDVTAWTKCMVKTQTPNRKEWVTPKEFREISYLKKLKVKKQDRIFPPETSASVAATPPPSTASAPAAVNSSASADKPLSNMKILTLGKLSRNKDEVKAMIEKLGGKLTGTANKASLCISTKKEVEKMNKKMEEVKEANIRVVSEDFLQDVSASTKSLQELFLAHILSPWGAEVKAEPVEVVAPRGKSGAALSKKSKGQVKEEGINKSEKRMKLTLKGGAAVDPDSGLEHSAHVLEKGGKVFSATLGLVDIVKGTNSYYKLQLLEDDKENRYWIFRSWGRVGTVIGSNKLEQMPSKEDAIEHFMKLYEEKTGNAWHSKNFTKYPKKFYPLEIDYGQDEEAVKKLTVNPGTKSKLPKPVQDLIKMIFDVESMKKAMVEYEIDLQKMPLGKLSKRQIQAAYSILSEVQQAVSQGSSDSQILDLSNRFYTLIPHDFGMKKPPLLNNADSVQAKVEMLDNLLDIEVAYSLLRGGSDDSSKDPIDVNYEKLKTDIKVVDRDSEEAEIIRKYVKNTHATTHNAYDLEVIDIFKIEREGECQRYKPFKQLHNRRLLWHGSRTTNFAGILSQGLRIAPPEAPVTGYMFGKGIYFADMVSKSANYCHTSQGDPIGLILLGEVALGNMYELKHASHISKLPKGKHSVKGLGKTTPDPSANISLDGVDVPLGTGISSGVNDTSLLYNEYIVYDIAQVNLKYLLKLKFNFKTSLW
inhibition at 0.001 µM,IC50,IC50 (hydrochloride),Structure (SMILES)
< 50%,–,–,"N#Cc1ccc(C2=CCN(C(=O)CCc3cc4ncccc4c(=O)[nH]3)CC2)cc1 [Example 245, 4-(1-(3-(5-oxo-5,6-dihydro-1,6-naphthyridin-7-yl)propanoyl)-1,2,3,6-tetrahydropyridin-4-yl)benzonitrile]"
< 50%,–,–,"COC(=O)c1ccc(NC2CCN(CCCc3cc4ncccc4c(=O)[nH]3)CC2)cc1 [Example 252, methyl 4-((1-(3-(5-oxo-5,6-dihydro-1,6-naphthyridin-7-yl)propyl)piperidin-4-yl)amino)benzoate]"
< 50%,–,–,"N#Cc1ccc(NC2CCN(CCCc3cc4ncccc4c(=O)[nH]3)CC2)cn1 [Example 251, 5-((1-(3-(5-oxo-5,6-dihydro-1,6-naphthyridin-7-yl)propyl)piperidin-4-yl)amino)picolinonitrile]"
< 50%,–,–,O=C(CCc1cc2ccc(F)cc2c(=O)[nH]1)N1CC=C(c2ccc(F)nc2)CC1 [Example 102]
< 50%,–,–,"N#Cc1ccccc1N1CCN(C(=O)CCc2cc3ccc(F)cc3c(=O)[nH]2)CC1 [Example 98, 2-(4-(3-(7-fluoro-1-oxo-1,2-dihydroisoquinolin-3-yl)propanoyl)piperazin-1-yl)benzonitrile]"
< 50%,–,–,"O=C(CCc1cc2ccc(F)cc2c(=O)[nH]1)N1CCN(c2ccc(F)cc2F)CC1 [Example 106, 3-(3-(4-(2,4-difluorophenyl)piperazin-1-yl)-3-oxopropyl)-7-fluoroisoquinolin-1(2H)-one]"
< 50%,–,–,"Cc1ccc(F)c2c(=O)[nH]c(CCC(=O)N3CC(NC(=O)C4CC4)C3)cc12 [Example 275, N-(1-(3-(8-fluoro-5-methyl-1-oxo-1,2-dihydroisoquinolin-3-yl)propanoyl)azetidin-3-yl)cyclopropanecarboxamide]"
< 50%,–,–,"Cc1ccc(F)c2c(=O)[nH]c(CCC(=O)N3CC=C(c4ccc(C#N)c(F)c4)CC3)cc12 [Example 141, 2-fluoro-4-(1-(3-(8-fluoro-5-methyl-1-oxo-1,2-dihydroisoquinolin-3-yl)propanoyl)-1,2,3,6-tetrahydropyridin-4-yl)benzonitrile]"
50 to 80%,–,–,"N#Cc1ccc(NC2CCN(CCCc3cc4cccc(F)c4c(=O)[nH]3)CC2)cc1 [Example 247, 4-((1-(3-(8-fluoro-1-oxo-1,2-dihydroisoquinolin-3-yl)propyl)piperidin-4-yl)amino)benzonitrile]"
< 50%,–,–,"O=C(CCc1cc2ccc(F)cc2c(=O)[nH]1)N1CCN(C(=O)C2CCC2)CC1 [Example 180, 3-(3-(4-(cyclobutanecarbonyl)piperazin-1-yl)-3-oxopropyl)-7-fluoroisoquinolin-1(2H)-one]"
< 50%,–,–,"N#Cc1ccc(C2=CCN(C(=O)CCc3cc4ccc(F)cc4c(=O)[nH]3)CC2)nc1 [Example 96, 1′-(3-(7-fluoro-1-oxo-1,2-dihydroisoquinolin-3-yl)propanoyl)-1′,2′,3′,6′-tetrahydro-[2,4′-bipyridine]-5-carbonitrile]"
< 50%,–,–,"Cc1cc(F)cc2c(=O)[nH]c(CCC(=O)N3CC=C(c4ccc(F)cc4)CC3)cc12 [Example 150, 7-fluoro-3-(3-(4-(4-fluorophenyl)-3,6-dihydropyridin-1(2H)-yl)-3-oxopropyl)-5-methylisoquinolin-1(2H)-one]"
< 50%,–,–,"N#Cc1ccc(C2=CCN(C(=O)CCc3cc4ccc(F)cc4c(=O)[nH]3)CC2)cc1 [Example 95, 4-(1-(3-(7-fluoro-1-oxo-1,2-dihydroisoquinolin-3-yl)propanoyl)-1,2,3,6-tetrahydropyridin-4-yl)benzonitrile]"
< 50%,–,–,"O=C(CCc1cc2ccc(F)cc2c(=O)[nH]1)N1CCN(C(=O)C2CCCCC2)CC1 [Example 172, 3-(3-(4-(cyclohexanecarbonyl)piperazin-1-yl)-3-oxopropyl)-7-fluoroisoquinolin-1(2H)-one]"
< 50%,–,–,"Cc1ccc(F)c2c(=O)[nH]c(CCC(=O)N3CCC(O)CC3)cc12 [Example 270, 8-fluoro-3-(3-(4-hydroxypiperidin-1-yl)-3-oxopropyl)-5-methylisoquinolin-1(2H)-one]"
< 50%,14.7 nM,–,"Cc1ccc(F)c2c(=O)[nH]c(CCC(=O)N3CCN(C(=O)C4CC4)CC3)cc12 [Example 183, 3-(3-(4-(cyclopropanecarbonyl)piperazin-1-yl)-3-oxopropyl)-8-fluoro-5-methylisoquinolin-1(2H)-one]"
< 50%,–,–,"O=C(CCc1cc2cccc(F)c2c(=O)[nH]1)N1CC=C(c2ccnc(F)c2)CC1 [Example 92, 8-fluoro-3-(3-(2′-fluoro-3,6-dihydro-[4,4′-bipyridine]-1(2H)-yl)-3-oxopropyl)isoquinolin-1(2H)-one]"
< 50%,–,–,"COC(=O)c1ccc(N2CCN(C(=O)CCc3cc4c(C)ccc(F)c4c(=O)[nH]3)CC2)cc1 [Example 146, methyl 4-(4-(3-(8-fluoro-5-methyl-1-oxo-1,2-dihydroisoquinolin-3-yl)propanoyl)piperazin-1-yl)benzoate]"
< 50%,–,–,"N#Cc1ccc(F)cc1N1CCN(C(=O)CCc2cc3ccc(F)cc3c(=O)[nH]2)CC1 [Example 108, 4-fluoro-2-(4-(3-(7-fluoro-1-oxo-1,2-dihydroisoquinolin-3-yl)propanoyl)piperazin-1-yl)benzonitrile]"

# Continued, molecule first:
Structure (SMILES),inhibition at 0.001 µM,IC50,IC50 (hydrochloride)
"O=c1[nH]c(CCCN2CC=C(c3ccc(F)cc3)CC2)cc2ccc(F)cc12 [Example 48, 7-fluoro-3-(3-(4-(4-fluorophenyl)-3,6-dihydropyridin-1(2H)-yl)propyl)isoquinolin-1(2H)-one]",< 50%,1.32 nM,–
"Cc1ccc(F)c2c(=O)[nH]c(CCCN3CCN(c4ccc(C#N)nc4)CC3)cc12 [Example 21, 5-(4-(3-(8-fluoro-5-methyl-1-oxo-1,2-dihydroisoquinolin-3-yl)propyl)piperazin-1-yl)picolinonitrile]",< 50%,1.09 nM,–
"Cc1cnc(N2CCN(CCCc3cc4c(C)ccc(F)c4c(=O)[nH]3)CC2)s1 [Example 30, 8-fluoro-5-methyl-3-(3-(4-(5-methylthiazole-2-yl)piperazin-1-yl)propyl)isoquinolin-1(2H)-one]",< 50%,–,–
"CC(=O)Nc1cccc(N2CCN(CCCc3cc4ccc(F)cc4c(=O)[nH]3)CC2)c1 [Example 20, N-(3-(4-(3-(7-fluoro-1-oxo-1,2-dihydroisoquinolin-3-yl)propyl)piperazin-1-yl)phenyl)acetamide]",< 50%,–,–
"N#Cc1ccc(N2CCN(C(=O)CCc3cc4cccc(F)c4c(=O)[nH]3)CC2)cn1 [Example 70, 5-(4-(3-(8-fluoro-1-oxo-1,2-dihydroisoquinolin-3-yl)propanoyl)piperazin-1-yl)picolinonitrile]",< 50%,–,–
"Cc1cc(F)cc2c(=O)[nH]c(CCCN3CC=C(c4ccc(C#N)cn4)CC3)cc12 [Example 60, 1′-(3-(7-fluoro-5-methyl-1-oxo-1,2-dihydroisoquinolin-3-yl)propyl)-1′,2′,3′,6′-tetrahydro-[2,4′-bipyridine]-5-carbonitrile]",< 50%,–,–
"Cc1cc(F)cc2c(=O)[nH]c(CCCN3CC=C(c4ccc(F)cn4)CC3)cc12 [Example 62, 7-fluoro-3-(3-(5-fluoro-3′,6′-dihydro-[2,4′-bipyridine]-1′(2′H)-yl)propyl)-5-methylisoquinolin-1(2H)-one]",< 50%,–,–
"Cc1cc(F)cc2c(=O)[nH]c(CCC(=O)N3C4CCC3CN(c3ccc(F)nc3)C4)cc12 [Example 217, 7-fluoro-3-(3-(3-(6-fluoropyridin-3-yl)-3,8-diazabicyclo[3.2.1]octan-8-yl)-3-oxopropyl)-5-methylisoquinolin-1(2H)-one]",< 50%,–,–
"Cc1cc(F)cc2c(=O)[nH]c(CCCN3CCN(c4ccc(C#N)cc4)CC3)cc12 [Example 34, 4-(4-(3-(7-fluoro-5-methyl-1-oxo-1,2-dihydroisoquinolin-3-yl)propyl)piperazin-1-yl)benzonitrile]",< 50%,–,–
"O=c1[nH]c(CCCN2C3CCC2CN(c2ccc(F)cn2)C3)cc2ncccc12 [Example 231, 7-(3-(3-(5-fluoropyridin-2-yl)-3,8-diazabicyclo[3.2.1]octan-8-yl)propyl)-1,6-naphthyridin-5(6H)-one]",< 50%,–,–
"N#Cc1ccccc1N1CCN(C(=O)CCc2cc3cccc(F)c3c(=O)[nH]2)CC1 [Example 74, 2-(4-(3-(8-fluoro-1-oxo-1,2-dihydroisoquinolin-3-yl)propanoyl)piperazin-1-yl)benzonitrile]",< 50%,–,–
"N#Cc1ccc(N2CC3CCC(C2)N3CCCc2cc3cccc(F)c3c(=O)[nH]2)cc1 [Example 7, 4-(8-(3-(8-fluoro-1-oxo-1,2-dihydroisoquinolin-3-yl)propyl)-3,8-diazabicyclo[3.2.1]octan-3-yl)benzonitrile]",< 50%,–,–
"O=c1[nH]c(CCCN2CCN(c3ncccn3)CC2)cc2ccc(F)cc12 [Example 13, 7-fluoro-3-(3-(4-(pyrimidin-2-yl)piperazin-1-yl)propyl)isoquinolin-1(2H)-one]",< 50%,–,–
"N#Cc1ccc(N2CCN(C(=O)CCc3cc4cccc(F)c4c(=O)[nH]3)CC2)nc1 [Example 71, 6-(4-(3-(8-fluoro-1-oxo-1,2-dihydroisoquinolin-3-yl)propanoyl)piperazin-1-yl)nicotinonitrile]",< 50%,–,–
"N#Cc1ccc(N2CCN(CCCc3cc4cccc(F)c4c(=O)[nH]3)CC2)cc1 [Example 6, 4-(4-(3-(8-fluoro-1-oxo-1,2-dihydroisoquinolin-3-yl)propyl)piperazin-1-yl)benzonitrile hydrochloride]",50 to 80%,–,0.41 nM
"O=c1[nH]c(CCCN2CCC(Nc3ccc(C(F)(F)F)cc3)CC2)cc2ncccc12 [Example 253, 7-(3-(4-((4-(trifluoromethyl)phenyl)amino)piperidin-1-yl)propyl)-1,6-naphthyridin-5(6H)-one]",< 50%,–,–
